According to US10829530B2, “Analogues of VDAC1-derived peptides” (B. G. NEGEV TECHNOLOGIES AND APPLICATIONS LTD., AT …, priority 2015, dated 2020):
Read-outs that look alike come from different tables or passages of the source.

Legend:
[1] = test system: U-87MG cells; experiment: Intracranial-orthotopic U-87MG xenograft in nude mice (MRI tumor volume, survival); format: in vivo, mouse; conditions: administrated intravenously, inferred from effect on brain tumor
Procedure: For the intracranial-orthotopic xenograft mouse model, U-87MG cells (8×10^4) were engrafted into a nude mouse brain using a stereotactic device. […] Mice were subjected to MRI and then sacrificed. Brains were excised and processed for IHC. Tumor volume was analyzed using VivoQuant 2.10 software.
25 and 32 days later, tumor growth was monitored by MRI (FIG. 11A).

[2] = test system: PANC-2 cells; experiment: Cell death induction in PANC-2 pancreatic cancer cells (PI staining, flow cytometry); format: cell-based, mouse; conditions: PANC-2, serum-free medium, 6 h
Procedure: (§1) Cells in suspension were counted (2×10^6/ml) and treated on the same day whereas adherent cells were counted and seeded (1.5−2×10^5/ml) in 12 wells plate 16-24 h before treatment. Cells in suspension or adherent cells were incubated in serum-free medium (200 μl or 500 μl, respectively) with various concentrations of peptide of interest (for 90 min or 6 h, respectively) at 37° C. in the presence of 5% CO2. Cells were collected (adherent cells by trypsinization), centrifuged (1500×g, 5 min), washed once with PBS and analyzed for cell death using propidium iodide (PI) staining and flow cytometer (Beckton-Dickinson, San Jose, Calif.) and BD CellQuest Pro software.
(§2) PI solution was diluted with PBS to a final concentration of 0.5 mg/ml. 2.5 μl of the PI solution were added to each FACS tube, and the tubes were vortexed gently to homogenize the cell suspension. Cell viability was measured in the FACS channel FL3 and data were analyzed using CellQuest Pro software.
(§3) The human (PANC-1) and mouse (PANC-2) cancerous pancreatic cells were used in this assay. […] Cell death was analyzed by PI staining and percentage of cell death was measured by Flow Cytometery.

[3] = test system: PANC-1 cells; experiment: Cell death induction in PANC-1 pancreatic cancer cells (PI staining, flow cytometry); format: cell-based, human; conditions: PANC-1, serum-free medium, 6 h
Procedure: as §1, §2, §3

[4] = Peptide solubility (soluble peptide in supernatant, absorbance at 280 nm); format: physicochemical
Procedure: The peptides were dissolved in 100% DMSO then diluted by about 10-fold to reduce DMSO to 10-11% and the peptide to 4.4 or 4 mM, and the amount of the soluble peptide was analyzed in the supernatant (SUP) following centrifugation to remove insoluble peptide.
The peptides were synthesized by GL Biochem (Shanghai, China) to >95% purity. […] Then the solutions were diluted to peptide concentration of 20 mg/ml (4.86 mM) by adding while mixing 95 μl of distilled water and the diluted solutions were incubated in 37° C. water bath for 30 minutes to allow further solubilization until the solutions became clear. The peptide solutions were then centrifuged for 5 min at 15,000 g and the supernatant of each preparation was transferred to fresh Eppendorf tube with low binding capacity. Aliquots of the obtained solution were taken for further analysis of peptide concentration.
Peptides were dissolved as described hereinabove. Concentration examined was 4 mM; solvent used was DDW/10% DMSO/150 mM NaCl (NaCl added later at a final concentration of 150 mM) as a common physiologically compatible solution for drug administration.
The molecular weight of Tf-D-LP=4111.67 g/mol. […] 8.5 μl DMSO 100% were added to the peptide to form a concentration of 40 mM, and the solution was incubated in a water bath at 37° C. for 15 min until the solution became clear. The solution obtained was diluted by about 10-fold with DDW reaching a final concentration of 4.4 mM (11.1% DMSO), incubated in a water bath at 37° C. for 15 min, and then incubated overnight at 4° C. […] Peptide concentration in each step was analyzed.
Peptide concentration was determined from the absorbance at 280 nm following its denaturation and using the following calculation:
Weight/volume (mg/ml) concentration was calculated according to the equation: mg peptide/ml=(AU×DF×Mw)/[(TrypW #×5560)+(TyrY #×1200)]: • AU—peptide absorbance measured • DF—dilution factor • Mw—Molecular weight • TrypW #—number of Tryptophan in the peptide sequence • TyrY #—number of Tyrosine in the peptide sequence

[5] = test system: GL-261 cells; experiment: Cell death induction in GL-261 glioma cells (PI staining, FACS); format: cell-based, mouse; conditions: GL-261, serum-free medium, 6 h
Procedure: as §1, §2

[6] = test system: THP-1 cells; experiment: Cell death induction in THP-1 leukemia cells (PI staining, flow cytometry); format: cell-based, human; conditions: THP-1, serum-free medium, 90 min, 37° C.
Procedure: as §1, §2
Cells of human monocytic cell line derived from an acute monocytic leukemia patient (THP-1 cells, 400,000 cells per well) were used in this experiment.

[7] = test system: U-87MG; format: cell-based; conditions: Example 7, n=3, read-out: concentration for inducing 50% cell death (EC50)
Procedure: Human primary glioblastoma tumor-derived cell lines (U-87MG), at 6×10^5 cells per ml were incubated in a serum-free medium with the examined peptide at several concentrations for 6 h at 37° C. in the presence of 5% CO2. […] The cells were then trypsinized, centrifuged (1500×g, 5 min), washed with PBS and analyzed for cell death using PI staining and flow cytometer (Beckton-Dickinson, San Jose, Calif.) and BD CellQuest Pro software.

[8] = test system: BNL1ME cell line; format: cell-based; conditions: serum-free medium, 6 h; for EC50: read-out: EC50 of cell death
Procedure: as §1, §2
Cells were incubated in a serum-free medium with each peptide type for 6 h at 37° C. in the presence of 5% CO2.

[9] = test system: glioma-derived stem cell (GSC) line G7; experiment: Cell death induction in G7 glioma-derived stem cells (PI staining, flow cytometry); format: cell-based, human; conditions: n=3, read-out: concentration for inducing 50% cell death (EC50)
Procedure: The G7 GSC cell line was grown using specific glioblastoma stem cell medium, as described previously (Pollard S M et al 2009. Cell Stem Cell. 4(6):568-580.)
The GSC-specific markers, Sox2, Musashi, and Nestin were highly expressed in G7, as compared to U-87MG cells, containing about 1% GSCs, thus confirming the stemness of the cells (FIG. 7B, 7C). Klf4 was expressed in both cell lines with its level in G7 slightly higher. […] Similar results were obtained when apoptosis was assayed using annexinV/PI staining and FACS analysis (FIG. 7E).

[10] = test system: B16F10.0 melanoma cells; experiment: Cell death induction in B16F10.0 melanoma cells (PI staining, FACS); format: cell-based, mouse; conditions: B16F10.0, serum-free medium, 6 h
Procedure: as §1, §2
Cell death was analyzed by PI staining and FACS.

[11] = test system: A549; experiment: Peptide storage stability, read out as death of A549 cells (PI staining, FACS); format: cell-based; conditions: for activity kept after storage: assayed at 10 μM on A549
Procedure: The peptide (0.5 mM in 5% DMSO) was incubated at −20° C., 4° C. or 25° C. for the indicated time, and then assayed (at 10 μM) for its capability to induce death of A549 using PI staining and FACS analysis. In untreated cells, cell death was 3%, while with the peptide, cell death was over 90% (n=2).
The assay conditions were as described in FIG. 8A above.

Compound	crossing of the blood brain barrier (BBB) [1]	EC50 [2] [µM]	EC50 [3] [µM]	solubility in 100% DMSO [4]	EC50 [5] [µM]	EC50 [6] [µM]	EC50 [7] [µM]	EC50 [8] [µM]	EC50 [9] [µM]	EC50 [10] [µM]	solubility in 100% DMSO ([4]; 100% DMSO)	soluble peptide out of the total peptide content ([4]; DMSO concentration reduced to 10%, about 4 mM peptide)	maximal cell death induction [8] [%]	activity kept after storage ([11]; 0.5 mM in 5% DMSO stored at 4° C. or 25° C.) [%]	activity kept after storage ([11]; 0.5 mM in 5% DMSO stored at −20° C.)	cell death ([11]; A549, 10 μM peptide, n=2, untreated cells 3%)
CC[C@H](C)[C@H](NC(=O)[C@H](Cc1ccc(O)cc1)NC(=O)[C@@H]1CCCN1C(=O)[C@H](CCCNC(=N)N)NC(=O)[C@H](Cc1c[nH]cn1)NC(=O)[C@@H](CO)NC(=O)[C@@H](Cc1c[nH]c2ccccc12)NC(=O)[C@H](NC(=O)[C@@H](Cc1c[nH]c2ccccc12)NC(=O)[C@@H](CCC(=O)O)NC(=O)[C@@H](CCCCN)NC(=O)[C@@H](CCCCN)NC(=O)[C@@H](CC(C)C)NC(=O)[C@@H](CCC(=O)O)NC(=O)[C@H](NC(=O)[C@@H](C)NC(=O)[C@H](NC(=O)[C@@H](CC(N)=O)NC(=O)[C@@H](CC(C)C)NC(=O)[C@@H](C)NC(=O)[C@@H](Cc1c[nH]c2ccccc12)NC(=O)[C@H](NC(=O)[C@@H](C)NC(=O)CNC(=O)[C@@H](CC(N)=O)NC(=O)[C@@H](CO)NC(=O)[C@@H](CC(N)=O)NC(=O)[C@@H](CCCCN)NC(=O)[C@@H](Cc1c[nH]c2ccccc12)NC(=O)[C@H](NC(=O)[C@@H](Cc1c[nH]c2ccccc12)NC(=O)[C@H](N)CCCCN)[C@H](C)O)[C@H](C)O)C(C)C)[C@H](C)O)[C@H](C)O)C(=O)N[C@@H](C)C(=O)N[C@@H](Cc1c[nH]cn1)C(=O)O [Retro-Tf-D-LP4, D-Lys-D-Trp-D-Thr-D-Trp-D-Lys-D-Asn-D-Ser-D-Asn-D-Gly-D-Ala-D-Thr-D-Trp-D-Ala-D-Leu-D-Asn-D-Val-D-Ala-D-Thr-D-Glu-D-Leu-D-Lys-D-Lys-D-Glu-D-Trp-D-Thr-D-Trp-D-ser-His-Arg-Pro-Tyr-Ile-Ala-His]	can cross the BBB	~4	~4	high solubility	2.2	4.5	1.5 ± 0.3	2.5	2.5 ± 0.3	7	–	–	–	–	–	–
CC[C@H](C)[C@H](NC(=O)[C@H](C)NC(=O)[C@@H](N)Cc1c[nH]cn1)C(=O)N[C@@H](Cc1ccc(O)cc1)C(=O)N1CCC[C@H]1C(=O)N[C@@H](CCCNC(=N)N)C(=O)N[C@@H](Cc1c[nH]cn1)C(=O)N[C@H](CO)C(=O)N[C@H](Cc1c[nH]c2ccccc12)C(=O)N[C@@H](C(=O)N[C@H](Cc1c[nH]c2ccccc12)C(=O)N[C@H](CCC(=O)O)C(=O)N[C@H](CCCCN)C(=O)N[C@H](CCCCN)C(=O)N[C@H](CC(C)C)C(=O)N[C@H](CCC(=O)O)C(=O)N[C@@H](C(=O)N[C@H](C)C(=O)N[C@@H](C(=O)N[C@H](CC(N)=O)C(=O)N[C@H](CC(C)C)C(=O)N[C@H](C)C(=O)N[C@H](Cc1c[nH]c2ccccc12)C(=O)N[C@@H](C(=O)N[C@H](C)C(=O)NCC(=O)N[C@H](CC(N)=O)C(=O)N[C@H](CO)C(=O)N[C@H](CC(N)=O)C(=O)N[C@H](CCCCN)C(=O)N[C@H](Cc1c[nH]c2ccccc12)C(=O)N[C@@H](C(=O)N[C@H](Cc1c[nH]c2ccccc12)C(=O)N[C@H](CCCCN)C(=O)O)[C@H](C)O)[C@H](C)O)C(C)C)[C@H](C)O)[C@H](C)O [Tf-D-LP4, His-Ala-Ile-Tyr-Pro-Arg-His-D-Ser-D-Trp-D-Thr-D-Trp-D-Glu-D-Lys-D-Lys-D-Leu-D-Glu-D-Thr-D-Ala-D-Val-D-Asn-D-Leu-D-Ala-D-Trp-D-Thr-D-Ala-D-Gly-D-Asn-D-Ser-D-Asn-D-Lys-D-Trp-D-Thr-D-Trp-D-Lys]	–	–	–	–	3.3	8	–	2.7	–	–	high solubility	about 10%	70	75	full activity	over 90%
